Laboratory results published in patent US8940739B2, “Compound of a reverse-turn mimetic and a production method and use therefor” (JW Pharmaceutical Corporation, priority 2010, dated 2015).

Columns and labels:
[1] = test system: MV-4-11 (human, Acute Myeloid Leukemia cell line) cells; assay: Cell growth inhibition assay, GI50 of MV-4-11; type: cell-based; settings: Homo sapiens, MV4-11, 72 h, MV-4-11 cells
Method in brief: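 MV-4-11 AML cells (5×10^4/well, IMDM with 10% FBS) treated in duplicate with serially diluted compounds for 72 hours at 37 °C. Viability read as absorbance at 490 nm after CellTiter 96 Aqueous One (MTS) addition; GI50 calculated from the concentration-response.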

[2] = target: cDNA-expressed human hepatic CYP3A4 (Homo sapiens (Human), UniProt P08684); assay: Measurement of CYP (IC50 of P450 CYP3A4), BFC substrate; type: in vitro ADME; settings: 20 minutes
Sequence of cDNA-expressed human hepatic CYP3A4 (P08684 whole entry): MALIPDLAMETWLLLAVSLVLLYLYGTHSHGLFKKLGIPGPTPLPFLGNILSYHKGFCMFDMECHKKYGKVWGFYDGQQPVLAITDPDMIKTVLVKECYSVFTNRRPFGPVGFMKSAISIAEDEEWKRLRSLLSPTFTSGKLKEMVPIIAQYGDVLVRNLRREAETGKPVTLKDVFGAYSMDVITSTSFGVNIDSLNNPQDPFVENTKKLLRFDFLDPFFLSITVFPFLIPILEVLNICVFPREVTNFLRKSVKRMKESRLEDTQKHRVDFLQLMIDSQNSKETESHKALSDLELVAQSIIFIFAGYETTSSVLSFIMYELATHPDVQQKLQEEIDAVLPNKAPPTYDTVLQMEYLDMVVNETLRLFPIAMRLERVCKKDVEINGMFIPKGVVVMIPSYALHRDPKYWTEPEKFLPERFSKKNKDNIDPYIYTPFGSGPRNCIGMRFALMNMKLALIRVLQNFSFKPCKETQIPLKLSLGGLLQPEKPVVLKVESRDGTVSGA
Method in brief: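 cDNA-expressed human CYP3A4 supersomes in 0.1M potassium phosphate pH 7.4 with 8.3 mM MgCl2, 1.67 mM EDTA and 0.25 mM NADPH; compounds in acetonitrile (<1% final). Reaction started with 30 µM BFC, 20 min at 37. 7-Hydroxy-4-trifluoromethyl-coumarin read by fluorescence (ex 409/em 530 nm).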

SMILES | GI50 [1] [nM] | IC50 [2] [nM]
C=CCN1CC(=O)N2C(CN(Cc3cccc4c(C(=O)Nc5ccc(N6CCC7CCCN7C6)nc5)cn(C)c34)C(=O)[C@@H]2Cc2ccc(O)cc2)N1C(=O)NCc1ccccc1 (stereo partly drawn) [Compound G-66] | 1.3 | 4600
C=CCN1CC(=O)N2C(Cc3ccc(O)cc3)C(=O)N(Cc3cccc4c(C(=O)Nc5ccc(N6CCN(C(C)(C)C)CC6)nc5)cn(C)c34)CC2N1C(=O)NCc1ccccc1 (stereo not drawn) [Compound G-48] | 1.3 | 4190
C=CCN1CC(=O)N2[C@@H](Cc3ccc(O)cc3)C(=O)N(Cc3cccc4c(C(=O)N5CCN(C(C)C)CC5)cn(C)c34)C[C@@H]2N1C(=O)NCc1ccccc1 [Compound E-7] | 11.3 | 2240
C=CCN1CC(=O)N2[C@@H](Cc3ccc(O)cc3)C(=O)N(Cc3cccc4c(C(=O)Nc5ccc(N6CCC(OC)CC6)nc5)cn(C)c34)C[C@@H]2N1C(=O)NCc1ccccc1 [Compound G-38] | 0.6 | 2210
C=CCN1CC(=O)N2C(CN(Cc3cccc4c(C(=O)Nc5ccc(N6CCN(C)CC6)nc5)cn(C)c34)C(=O)[C@@H]2Cc2ccc(O)cc2)N1C(=O)NCc1ccccc1 (stereo partly drawn) [Compound G-41] | 1.3 | 7600
C=CCN1CC(=O)N2[C@@H](Cc3ccc(O)cc3)C(=O)N(Cc3cccc4c(C(=O)NC5CCN(C(=O)OC(C)(C)C)CC5)cn(C)c34)C[C@@H]2N1C(=O)NCc1ccccc1 [Compound F-61] | 1.6 | 5650
C=CCN1CC(=O)N2[C@@H](Cc3ccc(O)cc3)C(=O)N(Cc3cccc4c(C(=O)Nc5ccc(N6CC7CCN(C)C7C6)nc5)cn(C)c34)C[C@@H]2N1C(=O)NCc1ccccc1 (stereo partly drawn) [Compound G-64] | 1.3 | 7640
C=CCN1CC(=O)N2C(CN(Cc3cccc4c(C(=O)Nc5ccc(N6CCC7(CCN(CC)C7)C6)nc5)cn(C)c34)C(=O)[C@@H]2Cc2ccc(O)cc2)N1C(=O)NCc1ccccc1 (stereo partly drawn) [Compound G-65] | 1.3 | 3910
C=CCN1CC(=O)N2[C@@H](Cc3ccc(O)cc3)C(=O)N(Cc3cccc4c(-c5ccc(NC(=O)NC6CCCC6)cc5)cn(C)c34)C[C@@H]2N1C(=O)NCc1ccccc1 [Compound D-79] | 10.8 | 7800
C=CCN1CC(=O)N2C(Cc3ccc(O)cc3)C(=O)N(Cc3cccc4c(C(=O)Nc5ccc(NCCN6CCOCC6)nc5)cn(C)c34)CC2N1C(=O)NCc1ccccc1 (stereo not drawn) [Compound G-28] | 5.6 | 2320
C=CCN1CC(=O)N2C(Cc3ccc(O)cc3)C(=O)N(Cc3cccc4c(-c5ccc(NC(=O)N6CCN(S(C)(=O)=O)CC6)nc5)cn(C)c34)CC2N1C(=O)NCc1ccccc1 (stereo not drawn) [Compound G-68] | 2.2 | 6400
C=CCN1CC(=O)N2[C@@H](Cc3ccc(O)cc3)C(=O)N(Cc3cccc4c(-c5ccc(NC(=O)Nc6ncccn6)cc5)cn(C)c34)C[C@@H]2N1C(=O)NCc1ccccc1 [Compound D-82] | 16.8 | 8520
C=CCN1CC(=O)N2[C@@H](Cc3ccc(O)cc3)C(=O)N(Cc3cccc4c(C(=O)N5CCN(CCOC)CC5)cn(C)c34)C[C@@H]2N1C(=O)NCc1ccccc1 [Compound E-10] | 10.8 | 9120
C=CCN1CC(=O)N2[C@@H](Cc3ccc(O)cc3)C(=O)N(Cc3cccc4c(-c5ccc(NC(=O)NC6CCN(C)CC6)nc5)cn(C)c34)C[C@@H]2N1C(=O)NCc1ccccc1 [Compound D-98] | 23 | 2920
C=CCN1CC(=O)N2[C@@H](Cc3ccc(O)cc3)C(=O)N(Cc3cccc4c(C(=O)N5CCN(C)CC5)cn(C)c34)C[C@@H]2N1C(=O)NCc1ccccc1 [Compound E-4] | 11.2 | 12200
C=CCN1CC(=O)N2[C@@H](Cc3ccc(O)cc3)C(=O)N(Cc3cccc4c(C(=O)Nc5ccc(NCCN(C)C)nc5)cn(C)c34)C[C@@H]2N1C(=O)NCc1ccccc1 [Compound G-23] | 1.3 | 6750
C=CCN1CC(=O)N2[C@@H](Cc3ccc(O)cc3)C(=O)N(Cc3cccc4c(-c5ccc(C#N)cc5)cn(C)c34)C[C@@H]2N1C(=O)NCc1ccccc1 [Compound H-2] | 17.8 | 9330
C=CCN1CC(=O)N2[C@@H](Cc3ccc(O)cc3)C(=O)N(Cc3cccc4c(-c5ccc(NC(=O)N6CCOCC6)cc5)cn(C)c34)C[C@@H]2N1C(=O)NCc1ccccc1 [Compound D-59] | 1.2 | 2190
C=CCN1CC(=O)N2[C@@H](Cc3ccc(O)cc3)C(=O)N(Cc3cccc4c(C(=O)NCc5ccnc(N(C)C)c5)cn(C)c34)C[C@@H]2N1C(=O)NCc1ccccc1 [Compound F-48] | 10.7 | 2180

Continued, values first:

GI50 [1] [nM] | IC50 [2] [nM] | SMILES
2.8 | 16000 | C=CCN1CC(=O)N2[C@@H](Cc3ccc(O)cc3)C(=O)N(Cc3cccc4c(-c5ccc(C(=O)Nc6cccc(C(N)=O)c6)cc5)cn(C)c34)C[C@@H]2N1C(=O)NCc1ccccc1 [Compound D-15]
5.8 | 2260 | C=CCN1CC(=O)N2[C@@H](Cc3ccc(O)cc3)C(=O)N(Cc3cccc4c(-c5ccc(NC(=O)c6ccc(CN(CC)CC)cc6)cc5)cn(C)c34)C[C@@H]2N1C(=O)NCc1ccccc1 [Compound D-55]
1.8 | 7040 | C=CCN1CC(=O)N2[C@@H](Cc3ccc(O)cc3)C(=O)N(Cc3cccc4c(-c5ccc(C(=O)Nc6ccc(N7CCN(C)CC7)cc6)cc5)cn(C)c34)C[C@@H]2N1C(=O)NCc1ccccc1 [Compound D-11]
12.5 | > 25000 | C=CCN1CC(=O)N2[C@@H](Cc3ccc(O)cc3)C(=O)N(Cc3cccc4c(-c5ccc(NC(=O)c6ccc(NC)cc6)cc5)cn(C)c34)C[C@@H]2N1C(=O)NCc1ccccc1 [Compound D-56]
2 | > 25000 | C=CCN1CC(=O)N2[C@@H](Cc3ccc(O)cc3)C(=O)N(Cc3cccc4c(-c5ccc(NC(=O)c6ccc(N)cc6)cc5)cn(C)c34)C[C@@H]2N1C(=O)NCc1ccccc1 [Compound D-50]
19 | 13700 | C=CCN1CC(=O)N2[C@@H](Cc3ccc(O)cc3)C(=O)N(Cc3cccc4c(-c5ccc(C(=O)Nc6cccc(OC(C)C)c6)cc5)cn(C)c34)C[C@@H]2N1C(=O)NCc1ccccc1 [Compound D-26]
2.1 | > 25000 | C=CCN1CC(=O)N2[C@@H](Cc3ccc(O)cc3)C(=O)N(Cc3cccc4c(-c5ccc(C(=O)Nc6ccc(N7CCOCC7)nc6)cc5)cn(C)c34)C[C@@H]2N1C(=O)NCc1ccccc1 [Compound D-12]
1.2 | 3410 | C=CCN1CC(=O)N2[C@@H](Cc3ccc(O)cc3)C(=O)N(Cc3cccc4c(-c5ccc(C(=O)NNC(C)(C)C)cc5)cn(C)c34)C[C@@H]2N1C(=O)NCc1ccccc1 [Compound D-34]
6.9 | 6530 | C=CCN1CC(=O)N2[C@@H](Cc3ccc(O)cc3)C(=O)N(Cc3cccc4c(-c5ccc(C(=O)Nc6cccc(OC)c6)cc5)cn(C)c34)C[C@@H]2N1C(=O)NCc1ccccc1 [Compound D-21]
1.9 | > 25000 | C=CCN1CC(=O)N2[C@@H](Cc3ccc(O)cc3)C(=O)N(Cc3cccc4c(-c5ccc(NC(=O)c6ccccc6)cc5)cn(C)c34)C[C@@H]2N1C(=O)NCc1ccccc1 [Compound D-48]
6.9 | 7630 | C=CCN1CC(=O)N2[C@@H](Cc3ccc(O)cc3)C(=O)N(Cc3cccc4c(-c5ccc(C(=O)Nc6ccccc6)cc5)cn(C)c34)C[C@@H]2N1C(=O)NCc1ccccc1 [Compound D-17]
